Experimental data published in patent US6221867A, “4,5-pyrazinoxindoles” (Hoffmann-La Roche Inc., priority 1999, dated 2001).

Target: rat SAPK (isoform β) (Rattus norvegicus, UniProt P49187)
Assay: SAPK FlashPlate Assay (inhibition of cJun phosphorylation)
Format: biochemical
Conditions: for SAPK % Inhibition: at test concentration 0.5 μM, GST-cJun substrate, 33P-ATP
Procedure: "IC50 " refers to the concentration of a particular 4,5-pyrazinoxindole required to inhibit 50% of cJun phosphorylation, which is a measure of inhibition of SAPK activity. IC50 can be measured, inter alia, using the assay described herein in Example 7, infra.
Human JNK is highly homologous to rat SAPK. To measure the inhibitory activity of test compounds, the compounds were tested in the rat SAPK assay. For the SAPK assay, purified GST-cJun (a chimeric protein containing cJun, a natural substrate of JNK) was coated on 96 well FlashPlates (New England Nuclear, Boston, Mass.). Purified rat SAPK (isoform β, Kyriakis et al. supra) was preincubated with preparations containing MEKK-1 and MKK4 for 30 minutes at 37° C. in assay buffer containing 25 mM HEPES, pH 7.5, 150 mM NaCl, 20 mM MgCl2, 2 mM DTT, 0.001% Tween 20, 1 μM ATP freshly added. In the preincubation step, MEKK-1 phosphorylates and activates MKK-4, which in turn phosphorylates and activates SAPK. The activated SAPK was then added to the cJun coated FlashPlates along with ^33 P-ATP (0.32 μCi per reaction) and test compounds. The plates were incubated for 30 minutes at 37° C., then washed with PBS, 0.01% Tween 20, and counted in the Topcount scintillation counter (Packard Instrument Co., Downers Grove, Ill.). Dilutions of compounds were tested in duplicate in each assay. The percent inhibition of cJun phosphorylation (a measure of inhibition of SAPK activity) was determined by the following formula: [formula]
where "test compound" refers to the average counts per minute of the test duplicates, "nonspecific" refers to the average counts per minute when no SAPK was added, and "total" refers to the average counts per minute when no compound was added.

Chain of rat SAPK (isoform β) (P49187 whole entry, canonical isoform): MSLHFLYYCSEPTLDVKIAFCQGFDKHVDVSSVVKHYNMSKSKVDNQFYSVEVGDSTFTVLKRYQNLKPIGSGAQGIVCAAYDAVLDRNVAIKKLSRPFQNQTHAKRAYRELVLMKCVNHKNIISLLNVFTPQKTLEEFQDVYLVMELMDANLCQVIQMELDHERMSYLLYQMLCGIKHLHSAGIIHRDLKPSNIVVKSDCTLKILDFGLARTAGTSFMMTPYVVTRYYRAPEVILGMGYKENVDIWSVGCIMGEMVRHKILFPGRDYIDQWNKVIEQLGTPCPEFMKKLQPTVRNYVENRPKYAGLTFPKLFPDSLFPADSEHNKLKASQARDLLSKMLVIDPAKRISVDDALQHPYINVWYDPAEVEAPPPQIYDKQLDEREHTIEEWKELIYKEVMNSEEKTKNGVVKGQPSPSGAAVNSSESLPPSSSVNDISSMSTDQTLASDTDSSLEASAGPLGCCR

| SAPK % Inhibition [%] | Compound | inhibition at 0.1 µM (read-out: SAPK % Inhibition) [%] | other results |
| --- | --- | --- | --- |
|  | COc1cc[nH]c1/C=C1\C(=O)Nc2ccc3nc(-c4ccco4)c(-c4ccco4)nc3c21 [D, (Z)-7,9-Dihydro-2,3-di-(2-furanyl)-9-[(3-methoxy-1H-pyrrol-2-yl)methylene]-8H-pyrrolo[3,2-f]quinoxalin-8-one] |  | inhibition at 0.5 µM (read-out: SAPK % Inhibition): ≥ 50% |
| ≥ 50 | Mixture of (Z)-3-butyl-7,9-dihydro-9-[(3-methoxy-1H-pyrrol-2-yl)methylene]-2-methyl-8H-pyrrolo[3,2-f]quinoxalin-8-one and (Z)-2-butyl-7,9-dihydro-9-[(3-methoxy-1H-pyrrol-2-yl)methylene]-3-methyl-8H-pyrrolo[3,2-f]quinoxalin-8-one |  |  |
|  | COc1cc[nH]c1/C=C1\C(=O)Nc2ccc3nc4c(nc3c21)CCCC4 [E, (Z)-1,3,5,6,7,8-Hexahydro-3-[(3-methoxy-1H-pyrrol-2-yl)methylene]-2H-pyrrolo[3,2-a]phenazin-2-one] | ≥ 50 |  |
|  | COc1cc[nH]c1/C=C1\C(=O)Nc2ccc3nc(C)c(C)nc3c21 [A, (Z)-7,9-Dihydro-2,3-dimethyl-9-[(3-methoxy-1H-pyrrol-2-yl)methylene]-8H-pyrrolo-[3,2-f]quinoxalin-8-one] | ≥ 50 |  |
| ≥ 50 | (Z)-7,9-Dihydro-9-[(3-methoxy-1H-pyrrol-2-yl)methylene]-2-methyl-3-phenyl-8H-pyrrolo[3,2-f]quinoxalin-8-one and (Z)-7,9-dihydro-9-[(3-methoxy-1H-pyrrol-2-yl)methylene]-3-methyl-2-phenyl- 8H-pyrrolo[3,2-f]quinoxalin-8-one [C] |  |  |
